The values that follow are results of earlier work, collected in PMC11010885, “Functional Analysis and Tissue-Specific Expression of Calcitonin and CGRP with RAMP-Modulated Receptors CTR and CLR in Chickens” (Animals : an Open Access Journal from MDPI, 2024).

For the data set, the system named is RAMP1- and RAMP3-derived amylin receptors. Conditions: ref [51],[53]; cited from earlier work. The procedure:
In mammals, CTR functions as a receptor for three distinct hormones: CT, CGRP, and amylin (not explored in this study). The specific affinity spectrum is determined by its co-expression with RAMPs. Although CTR alone is a receptor for CT that is involved in bone homeostasis, CTRs in complex with RAMP1–3 are high-affinity receptors for amylin, a peptide involved in the regulation of food intake. […] The CTR + RAMP1 complex is a ...

For the substance “human CT: human CT, cited from the literature”, the affinity entry is “low affinity”.

Regarding “rat amylin: rat amylin, cited from the literature”, the affinity entry is given as “moderate affinity”.
